According to patent US6677488B2, “Substituted biphenyl compounds for the treatment of inflammation” (G.D. Searle & Co., priority 1995, dated 2004):

Row | melting point | SMILES
1 | 172.2 to 172.5 °C | CS(=O)(=O)c1ccc(-c2cc(F)c(F)cc2-c2ccc(F)c(Cl)c2)cc1 [Example 14, 1-(3-Chloro-4-fluorophenyl)-4,5-difluoro-2-[4-(methylsulfonyl)phenyl]benzene]
2 | 187.5 to 187.8 °C | NS(=O)(=O)c1ccc(-c2ccccc2-c2ccc(C(F)(F)F)cc2)cc1 [Example 9, 4-[2-[4-(Trifluoromethyl)phenyl]phenyl]benzenesulfonamide]
3 | 143.5 to 144.5 °C | CS(=O)(=O)c1ccc(-c2cc(Cl)c(Cl)cc2-c2ccc(F)cc2)cc1 [Example 44, 1,2-Dichloro-4-(4-fluorophenyl)-5-[4-(methylsulfonyl)phenyl]benzene]
4 | 151.5 to 152 °C | Cc1cc(-c2cc(F)c(F)cc2-c2ccc(S(N)(=O)=O)cc2)ccc1F [Example 34, 4-[4,5-Difluoro-2-(4-fluoro-3-methylphenyl)phenyl)benzenesulfonamide]
5 | 180.2 to 180.6 °C | CS(=O)(=O)c1ccc(-c2ccccc2-c2ccc(Cl)cc2)cc1 [Example 8, 1-(4-Chlorophenyl)-2-[4-(methylsulfonyl)phenyl]benzene]
6 | > 96 °C (dec.) | Cc1ccc(-c2cc(F)c(F)cc2-c2ccc(S(N)(=O)=O)cc2)cn1 [Example 48, 4-[4,5-Difluoro-2-(6-methylpyridin-3-yl)phenyl]benzenesulfonamide]
7 | 157 to 158 °C | COc1ccc(-c2cc(F)c(F)cc2-c2ccc(S(N)(=O)=O)cc2)cc1OC [Example 42, 4-[4,5-Difluoro-2-(3,4-dimethoxyphenyl)phenyl]benzenesulfonamide]
8 | 107 to 108 °C | NS(=O)(=O)c1ccc(-c2cc(F)c(F)cc2-c2ccc3c(c2)OCCO3)cc1 [Example 43, 4-[2-(2,3-Dihydro-1,4-benzodioxin-6-yl)-4,5-difluorophenyl]benzenesulfonamide]
9 | 125.1 to 125.8 °C | Cc1ccc(-c2cc(F)c(F)cc2-c2ccc(S(C)(=O)=O)cc2)cc1C [Example 33, 1,2-Difluoro-4-(3,4-dimethylphenyl)-5-[4-(methylsulfonyl)phenyl]benzene]
10 | 103 to 104 °C | Cc1ccc(-c2cc(F)c(F)cc2-c2ccc(S(N)(=O)=O)cc2)cc1 [Example 25, 4-[4,5-Difluoro-2-(4-methylphenyl)phenyl]benzenesulfonamide]
11 | 151.5 to 152.2 °C | Cc1cc(-c2cc(F)c(F)cc2-c2ccc(S(C)(=O)=O)cc2)ccc1Cl [Example 32, 4-(4-Chloro-3-methylphenyl)-1,2-difluoro-5-[4-(methylsulfonyl)phenyl]benzene]
12 | 192.5 to 193.2 °C | NS(=O)(=O)c1ccc(-c2ccccc2-c2ccc(F)c(Cl)c2)cc1 [Example 12, 4-[2-(3-Chloro-4-fluorophenyl)phenyl]benzenesulfonamide]
13 | 110 to 111 °C | CS(=O)(=O)c1ccc(-c2cc(F)c(F)cc2-c2ccc3c(c2)OCO3)cc1 [Example 24, 5-[4,5-Difluoro-2-[4-(methylsulfonyl)phenyl]phenyl]-1,3-benzodioxole]
14 | 132.8 to 133.9 °C | Cc1ccc(-c2cc(F)c(F)cc2-c2ccc(S(N)(=O)=O)cc2)cc1C [Example 37, 4-[4,5-Difluoro-2-(3,4-dimethylphenyl)phenyl]benzenesulfonamide]
15 | 178 to 179 °C | CS(=O)(=O)c1ccc(-c2ccccc2-c2ccc(F)cc2)cc1 [Example 1, 1-(4-Fluorophenyl)-2-[4-(methylsulfonyl)phenyl]benzene]
16 | 172.8 to 173.5 °C | CS(=O)(=O)c1ccc(-c2cc(F)c(F)cc2-c2ccc(F)cc2)cc1 [Example 11, 1,2-Difluoro-4-(4-fluorophenyl)-5-[4-(methylsulfonyl)phenyl]benzene]
17 | 159.2 to 159.7 °C | COc1ccc(-c2cc(F)c(F)cc2-c2ccc(S(C)(=O)=O)cc2)cc1F [Example 19, 1,2-Difluoro-4-(3-fluoro-4-methoxyphenyl)-5-[4-(methylsulfonyl)phenyl]benzene]
